US20080107719A1, “Transdermal drug delivery system” (priority 2006, published 2008)
Converted amounts (≈) assume the structure as drawn. Like-named read-outs stand apart in the source and are kept apart here. Each block holds one compound with its values, some of them ahead of it.

Assays:
[1] = Solubility in various PH medium; type: physicochemical; conditions: media of various pH, aqueous buffer
[2] = Hygroscopicity (moisture sorption); type: physicochemical
Pka determination = type: physicochemical
[3] = Stability in aqueous (PH1 and 14) tested by 3% hydrogen peroxide; type: physicochemical
[4] = Half life (t1/2) in acidic and basic PH conditions; type: physicochemical; conditions: buffer
Solubility in PG = type: physicochemical; conditions: organic solvent or mixture
rat [5] = conditions: cited from earlier work
rat [6] = conditions: in vivo; cited from earlier work

Compound: CC12CC3CC(C)(C1)CC(N)(C3)C2.Cl [Memantine HCl]
solubility ([1]; in PH 2-8, read-out: Solubility in various PH medium): > 1200 µg/mL
PH of 1% aqueous solution (Solubility in water; 1% aqueous solution): (PH 5.5-6)
solubility at 24 hr (Solubility in water; water): 45000 µg/mL
Hygroscopicity [2]: Slightly hygroscopic
moisture sorption ([2]; at 5-95% RH): (<1.1% moisture
Log P (Octanol/water) (Log P (Octanol/water)): 3.28
pKa (Pka determination): 10.5
Stability in aqueous (PH1 and 14) tested by 3% hydrogen peroxide ([3]; PH1 and 14, 3% hydrogen peroxide): Stable
stability in both acidic and basic pH conditions ([3]; acidic and basic pH): high stability

half-life ([4]; pH 1, PH1, read-out: t1/2 (days) PH1 (converted)): 51 days
half-life ([4]; pH 11, PH11, read-out: t1/2 (days) PH11 (converted)): 57 days
solubility ([1]; in PH1-11, read-out: Solubility (μg/ml) in various PH medium): 19.3 to 27.5 µg/mL (≈ 83.1 to 118 µM)
solubility (Solubility in PG): > 5100 µg/mL
solubility (Solubility in water; water): 24.5 µg/mL (≈ 105 µM)
logP (Log P (Octanol/water); octanol/water): 2.9 to 3.12
pKa (Pka determination): 11.3
Compound: Cc1cccc(C(C)c2c[nH]c(=S)[nH]2)c1C (stereo not drawn) [AGN 203818]

Compound: Polysorbate80
LD50 (Rat-Oral) (rat [5]): 34.5 ml/kg bodyweight

Compound: CN1CCCC1=O [N-methylpyrrolidone]
LD50 (skin) (rat [6]): 7 g/KG bodyweight
